# Test results from PubChem BioAssay (NCI).
#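 Values below derive from 48-hour exposures of cells grown in 96-well plates, with endpoints linearly interpolated between the two concentrations bracketing the appropriate inhibition level. GI50 = concentration required for 50% inhibition of growth. TGI: concentration producing complete growth inhibition.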
# What was measured:
# Test in all cases: NCI tumour cell line growth inhibition, 48 h
# SK-MEL-2 melanoma = tested on: SK-MEL-2 melanoma
# OVCAR-3 ovarian = tested on: OVCAR-3 ovarian
# BT-549 breast = tested on: BT-549 breast
# OVCAR-5 ovarian = tested on: OVCAR-5 ovarian
# OVCAR-4 ovarian = tested on: OVCAR-4 ovarian
# DU-145 prostate = tested on: DU-145 prostate
# RXF 393 renal = tested on: RXF 393 renal
# HL-60(TB) leukemia = tested on: HL-60(TB) leukemia
# TK-10 renal = tested on: TK-10 renal
# UO-31 renal = tested on: UO-31 renal
SMILES,GI50 (SK-MEL-2 melanoma) [µM],TGI (SK-MEL-2 melanoma) [µM],GI50 (OVCAR-3 ovarian) [µM],TGI (OVCAR-3 ovarian) [µM],GI50 (BT-549 breast) [µM],TGI (BT-549 breast) [µM],GI50 (OVCAR-5 ovarian) [µM],TGI (OVCAR-5 ovarian) [µM],GI50 (OVCAR-4 ovarian) [µM],TGI (OVCAR-4 ovarian) [µM],GI50 (DU-145 prostate) [µM],TGI (DU-145 prostate) [µM],GI50 (RXF 393 renal) [µM],TGI (RXF 393 renal) [µM],GI50 (HL-60(TB) leukemia) [µM],TGI (HL-60(TB) leukemia) [µM],GI50 (TK-10 renal) [µM],TGI (TK-10 renal) [µM],TGI (UO-31 renal) [µM],GI50 (UO-31 renal) [µM]
COc1cccc2c1ccc1nc3cccc(C(=O)N[C@H](C)CN(C)C)c3nc12,0.175,0.643,0.102,0.511,0.795,2.93,0.154,11.3,0.0927,0.894,0.0735,3.71,0.0984,0.35,0.32,1.98,0.0762,0.512,,
O=c1cc(-c2ccccc2F)[nH]c2ccc(N3CCCC3)cc12,,> 100,,,,> 100,2.53,> 100,,55.3,< 0.001,,< 0.001,> 100,< 0.001,,74.9,> 100,,
O=C(O)c1cc2ccc3ccccc3c2oc1=O,,> 100,,> 100,,> 100,,> 100,,> 100,,,,> 100,,> 100,,> 100,> 100,
COc1ccc(/C=C/C(=O)c2ccc(O)c(CN3CCN(c4cc5c(cc4F)c(=O)c(C(=O)O)cn5C4CC4)CC3)c2)cc1,2.87,21,1.97,> 100,1.28,> 100,4.61,> 100,54.9,> 100,1.47,> 100,1.42,60.3,,,7.16,74.6,,
OCC(O)C(Cl)CCl (centres undefined),,,,> 100,,> 100,,> 100,,> 100,,> 100,,,,> 100,,> 100,> 100,
Cc1cc(C(=C2C=CC(=Nc3ccccc3)C=C2)c2ccc(Nc3ccccc3)cc2)ccc1N,0.216,0.529,0.293,0.876,1.06,2.26,0.245,0.671,0.355,1.31,0.507,1.58,0.344,1.28,,,0.359,1.11,1.38,0.305
COC(=O)c1ccccc1OCc1cc(=O)oc2ccc(C)cc12,,> 85.4,,> 100,,> 100,,> 100,,> 63.4,,> 100,,,,> 100,,> 100,> 100,
O=C1C(N2CC2)=C(N2CC2)C(=O)C(N2CC2)=C1N1CC1,,,1.04,3.46,0.318,1.53,2.29,6.92,2.06,7.65,,0.487,0.218,1.01,0.201,8.64,2.59,> 100,0.606,< 0.0304
CN1CCN(CCOc2ccc(-c3cnc4c(-c5ccc(C(F)(F)F)cc5)cnn4c3)cc2)CC1,1.82,3.52,1.55,2.94,1.62,3.04,1.59,2.96,1.16,2.48,1.59,2.93,1.55,3.07,,,1.72,3.24,2.65,1.34
O=c1oc(Cl)c(Cl)c2ccccc12,14.1,44.1,11.7,27.8,20.8,41.2,18.7,57.1,30,> 100,18.3,38.6,24.8,52.2,,,82.5,> 100,47.9,22.4
CCn1cc(C(=O)N/N=C/c2ccccc2)c(=O)c2cc(F)c(N3CCNC(C)C3)c(F)c21 (centres undefined),,,1.82,3.3,1.6,3,1.64,3.05,2.04,3.62,1.88,3.3,,,,,1.71,3.24,2.89,1.55
O=C1C2C3C=C4c5ccccc5N(c5ccccc5)C4(C2C(=O)N1c1ccc(Cl)cc1)[C@H]1C(=O)N(c2ccc(Cl)cc2)C(=O)[C@@H]31 (some centres undefined),,> 100,,> 100,,,,> 100,,> 100,,,,> 100,,> 100,,> 100,> 100,
CC1CC2OC(=O)C(C)C2CC2(C)C(OC3OC(CO)C(O)C(O)C3O)OCCC12 (centres undefined),,> 100,,> 100,,29.4,,> 100,,> 100,,> 100,,> 100,,> 100,,> 100,,
N.N.N.N.N.[Cl-].[Co+3].c1ccc(-c2nn[n-]n2)cc1,> 100,> 100,> 100,> 100,,,> 100,> 100,> 100,> 100,,,> 100,> 100,> 100,> 100,> 100,> 100,> 100,> 100
